Assay results as given in US20240336748A1, “A METHOD FOR PREPARING HYALURONIC ACID GRAFTED POLY(N-ISOPROPYLACRYLAMIDE) (HA-G-PNI-PAM)” (NABSOLUTE COMPANY LIMITED, priority 2021, published 2024).

Tested on: fibroblast L929 cell
Assay: Side effect test, toxic reduction of asiatic acid, PrestoBlue assay
Type: cell-based
Conditions: 12.5 μM asiatic acid dissolved in DMSO in cell culture media
From the text: Side effect test of Sample 2 in colloid form at concentration of 0, 0.1, 0.15 and 0.25% w/v form was studied by considering the toxic reduction of asiatic acid in fibroblast L929 cell via PrestoBlue™ assay.

Work on `C[C@H]1[C@H](C)CC[C@]2(C(=O)O)CC[C@]3(C)C(=CC[C@@H]4[C@@]5(C)C[C@@H](O)[C@H](O)[C@@](C)(CO)[C@@H]5CC[C@]43C)[C@H]12` [asiatic acid] yielded a Cell viability of 5%.
